What was measured:
influenza virus (WSN) = format: cell-based
firefly luciferase = format: cell-based
[1] = test system: mRNA export block induced by influenza virus infection and mediated by NS1; format: cell-based, influenza virus (WSN)
NS1 protein = target: T1, NS1 protein (Influenza A virus, UniProt P03496); format: cell-based
T1 construct: expressed in transfected cells; host or cells: 293T cells

influenza virus = experiment: Inhibition of virus killing in human bronchial epithelial cells (infection assay); format: cell-based; details: purity and concentration verified
Source text: FIG. 7. […] Analogs in the library are related structures which provide structure-activity information. The z score is the compound value minus the experimental mean value divided by the standard deviation of the experimental population.
It is important to note, that with the exception of one compound (8 in FIG. 7), the values shown are from the screening experiments using compounds for which only estimated concentrations and solubilities were available. Inhibitor 8 has been purchased in large quantities from Chemical Diversity Laboratories (San Diego, Calif.) and its purity and concentration verified prior to obtaining the data on inhibition of virus killing in human bronchial epithelial cells. […] It is possible that some of the other compounds will show improvements in potency once pure stocks of known concentration are obtained (see FIG. 7). […] From these 71 inhibitors, 8 different compound families were chosen for further analyses (see FIG. 7).

T1 sequence (P03496 whole entry): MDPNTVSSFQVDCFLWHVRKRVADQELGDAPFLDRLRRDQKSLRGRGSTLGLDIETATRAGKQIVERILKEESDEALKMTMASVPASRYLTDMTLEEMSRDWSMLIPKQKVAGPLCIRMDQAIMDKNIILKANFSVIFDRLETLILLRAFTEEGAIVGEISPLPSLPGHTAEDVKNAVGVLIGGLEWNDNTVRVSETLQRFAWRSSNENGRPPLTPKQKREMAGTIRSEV

| SMILES | WSN HA titer 24H 24 hr (influenza virus (WSN)) | WSN HA titer 24H 36 hr (influenza virus (WSN)) | also measured |
| --- | --- | --- | --- |
| O=C(O)CCCCCN1C(=O)c2cccc3c([N+](=O)[O-])ccc(c23)C1=O [Compound 8.10] | 0.13 | 0.19 | – |
| O=C(O)CCCN1C(=O)c2cccc3cc([N+](=O)[O-])cc(c23)C1=O [Compound 8.9] | 0.50 | 0.50 | – |
| O=C(O)CCN1C(=O)c2cccc3c([N+](=O)[O-])ccc(c23)C1=O [Compound 8.2] | 0.25 | 0.50 | – |
| O=C(O)CCN1C(=O)c2cccc3cccc(c23)C1=O [Compound 8.16] | 1.00 | 0.50 | – |
| O=C(O)CCCCCN1C(=O)c2cccc3cccc(c23)C1=O [Compound 8.1] | 1.00 | 0.50 | – |
| O=C(O)CCCCCN1C(=O)c2cccc3c(N4CCCCC4)ccc(c23)C1=O [Compound 8.3] | 0.13 | 0.13 | Inhibition of Renilla luciferase expression (Renilla luciferase): no effect; Inhibition of firefly luciferase expression (firefly luciferase): inhibitor of firefly luciferase expression; Reversal of mRNA export block ([1]; MDCK cells infected with WSN, FIG. 10 (10 μM, MOI 0.01, 48 h in FIG. 10A)): significantly reverts the mRNA export block; Reversal of mRNA export blockage ([1]; compound at 50 μM, WSN MOI 1, 12 h (FIG. 10B)): significant reversal of mRNA export blockage; Inhibition of NS1 protein compared with compound 8 (NS1 protein): more inhibitory of NS1 protein; Score in the luciferase dependent assay (NS1 protein): did not score; Inhibition of virus growth compared with compound 8 (influenza virus (WSN)): more inhibitory of virus growth; Potency for inhibiting virus growth among analogs of compound 8 (influenza virus (WSN)): most potent compound for inhibiting virus growth |
| CCN1C(=O)c2cccc3c([N+](=O)[O-])ccc(c23)C1=O [Compound 8.6] | 0.13 | 0.25 | Inhibition of NS1 protein compared with compound 8 (NS1 protein): more inhibitory of NS1 protein; Inhibition of virus growth compared with compound 8 (influenza virus (WSN)): more inhibitory of virus growth |
| O=C(O)CCCN1C(=O)c2cccc3c([N+](=O)[O-])ccc(c23)C1=O [Compound 8.0] | 0.50 | 0.50 | Activity in the original screen (NS1 protein): not one of the most active compounds; Potency in the infection assay (influenza virus): most potent in the infection assay |
